Reference: patent US20130231472A1, “USE OF MOLECULAR MARKERS FOR THE PRECLINICAL PROFILING OF INHIBITORS OF ENZYMES HAVING HISTONE DEACETYLASE ACTIVITY” (priority 2002, published 2013)

Assays:
leukemic spleens = assay: Apoptosis in leukemic spleens after in vivo treatment (TUNEL assay); parameters: species or system mice; settings: VPA 400 mg/kg every 12 hours, 48 hours; FIG. 3A
Procedure: (§1) FIG. 3: (A) Secondary acute promyelocytic leukemias were induced in mice as described above. Leukemic mice were then treated with placebo (Ctrl), or VPA (400 mg/kg every 12 hours). Mice were sacrificed 48 hours after beginning of treatments, and then leukemic spleens were fixed and either stained for histological examination (hematoxylin-eosyn, left panels), or analyzed for the presence of apoptotic cells (TUNEL assay, right panels). (B) Secondary leukemias were obtained as above. Mice were sacrificed when leukemic invasion of peripheral organs was >75% (spleen). Splenocytes from healthy mice (taken as control, left panel), or from leukemic mice (>75% blasts, right panel) were put in culture and then treated with VPA (1 mM) for 48 hours. At the end of the treatment, apoptosis was measured by propidium iodide staining. The sub-G1 area indicates the hypodiploid DNA peak corresponding to cells with fragmented DNA undergoing apoptosis.

HDAC-1 = HDAC-1 protein levels (Westernblot, reference); assay type: cell-based; settings: 1 mM VPA; FIG. 6A; in some experiments a transient induction
Procedure: (§2) FIG. 6: (A) F9 teratocarcinoma or HEK293T embryonic kidney cells were exposed for indicated times to 1 mM VPA. Protein levels of HDAC-2 and HDACs 1 or 3 for reference (HDAC8; N-CoR and Sin3 as data not shown) were determined by Westernblot analysis. […] (C) The effect of other HDAC inhibitors on the amount of HDAC-2 protein was determined by using TSA (100 nM) in a time course analysis in F9 cells (left panel). The HDAC inhibitors TSA (100 nM), trapoxin (TPX, 10 nM), butyrate (1.5 mM) or MS275 (5 μM) were tested at a single time of exposure in HEK293T cells (right panel).

[1] = system: splenocytes from healthy mice; assay: Apoptosis of cultured normal splenocytes (propidium iodide staining); assay type: cell-based; settings: VPA 1 mM, 48 hours, FIG. 3B
Procedure: as §1

acetylated histones = assay: Histone acetylation in spleen after in vivo treatment (Western blot, immunohistochemistry); parameters: species or system mice; settings: for histone acetylation, spleen whole cell extracts: VPA 400 mg/kg, three and six hours, FIG. 2A
Procedure: FIG. 2: (A) Secondary acute promyelocytic leukemias were induced in mice as described above. (A) Leukemic mice or healthy mice (Ctrl) were then treated with placebo or VPA (400 mg/kg) for three and six hours. Mice were then sacrificed, whole cell extracts were prepared from the spleen (with >70% leukemic infiltration), and analyzed by SDS-PAGE followed by Western blot analysis using commercially available antibodies against acetylated histone H3. (B) Immunohistochemistry analysis of VPA-treated leukemic mice using a monoclonal antibody against acetylated histones.

HDAC-2 [2] = assay: HDAC-2 protein levels in HEK293T cells (Westernblot); assay type: cell-based, human
Procedure: as §2
FIG. 9: (A) HEK293T cells were treated for 24 h with VPA or left untreated. The cell penetrating protease inhibitors pepstatin A, leupeptin, or ALLM were added as indicated at the time of VPA addition. (B) Proteasome inhibitors ALLN or MG-132 were added at the indicated concentrations 4 h before cells were harvested. Protein levels of HDAC-2 were determined by Westernblot analysis.

HDAC-2 [3] = assay: Ubiquitinated HDAC-2 by His6-tagged ubiquitin / Ni2+-NTA agarose precipitation in HEK293T cells; assay type: cell-based, human; settings: VPA 36 h, FIG. 10B
Procedure: FIG. 10: (A) The total amount of high molecular weight poly-ubiquitinated protein was not altered by VPA treatment of cells (left two lanes). The presence of ubiquitinated proteins in anti HDAC-2 immune precipitates is shown in the right part of the panel. Cells had either been left untreated, were exposed to VPA (1.5 mM, 24 h) or the proteasome inhibitor ALLN (5 μM, 24 h) or both. Ubiquitinated proteins in the precipitates were detected by Western blot analysis. For lane N a non-immune serum was used instead of the anti HDAC-2 antibody. (B) The presence of mono- and/or oligo-ubiquitinated HDAC-2 upon VPA treatment of HEK293T cells was determined by ectopic expression of His6-tagged ubiquitin followed by VPA-treatment for 36 h as indicated. The proteasome inhibitor MG-132 was added 4 h prior to analysis to enhance the accumulation of ubiquitinated proteins. Electrophoretic mobility and unaltered presence of non-ubiquitinated HDAC-2 were determined by Westernblot analysis of whole cell extracts (left panel). Ubiquitinated proteins were precipitated with Ni^2+-NTA-agarose and analyzed for presence of ubiquitinated HDAC-2 (middle panel) by Westernblot analysis of precipitates. Anti-HDAC-2 immuno-reactive bands with the expected mobility of mono- or poly-ubiquitinated HDAC-2 are indicated by a bracket.

HDAC-3 [4] = assay: HDAC-3 pulse-chase analysis in HEK293T cells; assay type: cell-based, human; settings: VPA pretreatment, FIG. 8B
Procedure: FIG. 8: Synthesis and degradation rate of HDAC-2 were analyzed by pulse metabolic labeling with ^35S-methionine and pulse-chase analyses. ^35S-labelled HDAC-2 was detected by HDAC-2 specific immune precipitation followed by SDS-PAGE separation and autoradiography. (A) Pulse labeling for 1 h was performed in F9 and HEK293T cells which had been left untreated or were pretreated with 1 mM VPA for 24 h. (B) For pulse chase analysis cells were left untreated or pretreated for 24 h with 1 mM VPA and labeled with ^35S-methionine for an additional hour in the absence or presence of VPA. After removal of ^35S-methionine and addition of non-labeled methionine the elimination of radiolabeled HDAC-2 was followed over a period of 6 h. A pulse chase analysis was also performed in HEK293T cells without VPA pretreatment and addition of VPA (indicated by the (+) row) only at the time when the chase period was started. From HEK293T cell extracts also HDAC-3 was precipitated for reference.

HDAC-3 [5] = assay: HDAC-3 protein levels (Westernblot, reference); assay type: cell-based; settings: 1 mM VPA; FIG. 6A; in some experiments a transient induction
Procedure: as §2

CCCC(CCC)C(=O)O [VPA, Valproic acid]
apoptotic cells in leukemic spleens (TUNEL) (leukemic spleens): induces massive apoptosis within leukemic spleens
HDAC-1 protein levels (HDAC-1): not reduced
apoptosis (propidium iodide, sub-G1) [1]: unable to induce apoptosis of normal splenocytes
histone acetylation, spleen whole cell extracts (acetylated histones; leukemic mice (>70% leukemic infiltration)): enhanced levels of histone acetylation
histone acetylation by immunohistochemistry (acetylated histones; leukemic mice, monoclonal antibody against acetylated histones, FIG. 2B): dramatic increase of histone acetylation in all cells
histone acetylation, spleen whole cell extracts (acetylated histones; normal mice): enhanced levels of histone acetylation
HDAC-2 protein levels (HDAC-2 [2]; HEK293T cells, VPA 1 mM, TSA 100 nM, trapoxin 10 nM, butyrate 1.5 mM, MS275 5 μM): reduced
HDAC-2 protein levels at higher doses (HDAC-2 [2]; HEK 293T, VPA concentrations increased up to 5 or 10 mM, 36 h, FIG. 6B): slightly more pronounced reduction
gross abundance of ubiquitinated proteins (anti His-tag) (HDAC-2 [3]): not altered
oligo- and polyubiquitinated HDAC-2 bands in Ni2+-NTA-agarose precipitates (HDAC-2 [3]; MG-132 added 4 h prior to analysis): much more abundant
degradation of HDAC-3 (pulse-chase) (HDAC-3 [4]): not affected
HDAC-3 protein levels (HDAC-3 [5]): not reduced
